Experimental data as given in PubChem BioAssay AID1919009 (Molecular Pharmacology Branch, DTP, NCI, 2023).
“And” between values parts separate entries of the source, which are not always exact repeats. Equal entries are not always repeated.

Test system: K24384-001-R-PDC complex spheroid growth
Test: Anticancer human tumor K24384-001-R-PDC patient-derived pancreatic adenocarcinoma cell line growth inhibition [AhR]
Details: for viability, T/C: stronger effect = lower value
In short: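 Complex tumor spheroids co-cultured with HUVEC and human MSC stroma; AhR antagonists tested in combination with standard-of-care and investigational agents. Top concentration at or near clinical Cmax (else 10 microM), half-log dilutions; growth expressed as percent test/control.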

[1] = curve of first compound, second compound 0.1 µM
[2] = curve of first compound, second compound 0.316 µM
[3] = curve of first compound, second compound 1 µM
[4] = curve of first compound, second compound 3.16 µM
[5] = curve of first compound, second compound 10 µM
[6] = second compound 0.1 µM, first compound 0.0316 µM
[7] = second compound 0.1 µM, first compound 0.1 µM
[8] = second compound 0.1 µM, first compound 0.316 µM
[9] = second compound 0.1 µM, first compound 1 µM
[10] = second compound 0.1 µM, first compound 3.16 µM
[11] = second compound 0.1 µM, first compound 10 µM
[12] = second compound 0.316 µM, first compound 0.0316 µM
[13] = second compound 0.316 µM, first compound 0.1 µM
[14] = second compound 0.316 µM, first compound 0.316 µM
[15] = second compound 0.316 µM, first compound 1 µM
[16] = second compound 0.316 µM, first compound 3.16 µM
[17] = second compound 0.316 µM, first compound 10 µM
[18] = second compound 1 µM, first compound 0.0316 µM
[19] = second compound 1 µM, first compound 0.1 µM
[20] = second compound 1 µM, first compound 0.316 µM
[21] = second compound 1 µM, first compound 1 µM
[22] = second compound 1 µM, first compound 3.16 µM
[23] = second compound 1 µM, first compound 10 µM
[24] = second compound 3.16 µM, first compound 0.0316 µM
[25] = second compound 3.16 µM, first compound 0.1 µM
[26] = second compound 3.16 µM, first compound 0.316 µM
[27] = second compound 3.16 µM, first compound 1 µM
[28] = second compound 3.16 µM, first compound 3.16 µM
[29] = second compound 3.16 µM, first compound 10 µM
[30] = second compound 10 µM, first compound 0.0316 µM
[31] = second compound 10 µM, first compound 0.1 µM
[32] = second compound 10 µM, first compound 0.316 µM
[33] = second compound 10 µM, first compound 1 µM
[34] = second compound 10 µM, first compound 3.16 µM
[35] = second compound 10 µM, first compound 10 µM
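Wherever viability, T/C is given: percent of DMSO vehicle-treated spheroid viability set as 100%.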

| Structure (SMILES) | IC50 [1] | IC50 [2] | IC50 [3] | IC50 [4] | IC50 [5] | viability, T/C [6] | viability, T/C [7] | viability, T/C [8] | viability, T/C [9] | viability, T/C [10] | viability, T/C [11] | viability, T/C [12] | viability, T/C [13] | viability, T/C [14] | viability, T/C [15] | viability, T/C [16] | viability, T/C [17] | viability, T/C [18] | viability, T/C [19] | viability, T/C [20] | also measured |
| --- | --- | --- | --- | --- | --- | --- | --- | --- | --- | --- | --- | --- | --- | --- | --- | --- | --- | --- | --- | --- | --- |
| COc1cc(C2c3cc4c(cc3C(OC3OC5COC(C)OC5C(O)C3O)C3COC(=O)C23)OCO4)cc(OC)c1O (configuration not stated) + CC(CO)NC(=O)c1cc(-c2ccc(Cl)cc2)nn(-c2cnn(C)c2)c1=O | 1710 nM | 921 nM | 1170 nM | 764 nM | 611 nM | 96.8% | 102% | 75.9% | 60.8% | 39.8% | 33.5% | 89.5% | 93.4% | 78.1% | 48.4% | 30% | 28.5% | 95.9% | 96.4% | 78.1% | viability, T/C [21]: 52.7%; viability, T/C [22]: 36%; viability, T/C [23]: 30.8%; viability, T/C [24]: 74.6%; viability, T/C [25]: 82.4%; viability, T/C [26]: 80.4%; viability, T/C [27]: 41.2%; viability, T/C [28]: 33.4%; viability, T/C [29]: 29.6%; viability, T/C [30]: 70.8%; viability, T/C [31]: 72.9%; viability, T/C [32]: 57.2%; viability, T/C [33]: 44.7%; viability, T/C [34]: 34.1%; viability, T/C [35]: 33.7% |
| CC1(C)CCC(CN2CCN(c3ccc(C(=O)NS(=O)(=O)c4ccc(NCC5CCOCC5)c([N+](=O)[O-])c4)c(Oc4cnc5[nH]ccc5c4)c3)CC2)=C(c2ccc(Cl)cc2)C1 + CC(CO)NC(=O)c1cc(-c2ccc(Cl)cc2)nn(-c2cnn(C)c2)c1=O | > 10000 nM | > 10000 nM | > 10000 nM | 9000 nM | > 10000 nM | 91.4% | 115% | 94.4% | 88.3% | 87.9% | 50.5% | 117% | 124% | 123% | 101% | 106% | 49.9% | 123% | 139% | 123% | viability, T/C [21]: 115%; viability, T/C [22]: 110%; viability, T/C [23]: 51.7%; viability, T/C [24]: 97.3%; viability, T/C [25]: 112%; viability, T/C [26]: 122%; viability, T/C [27]: 110%; viability, T/C [28]: 77.9%; viability, T/C [29]: 47.2%; viability, T/C [30]: 101%; viability, T/C [31]: 114%; viability, T/C [32]: 113%; viability, T/C [33]: 110%; viability, T/C [34]: 90.2%; viability, T/C [35]: 53% |
| COc1cccc2c1C(=O)c1c(O)c3c(c(O)c1C2=O)CC(O)(C(=O)CO)CC3OC1CC(N)C(O)C(C)O1 (configuration not stated) | – | – | – | – | – | – | – | – | – | – | – | – | – | – | – | – | – | – | – | – | viability, T/C (compound 0.0316 µM): 55.9% and 53.8% and 60.3%; viability, T/C (compound 0.1 µM): 42.6% and 43.3% and 55.6%; viability, T/C (compound 0.316 µM): 27.5% and 27% and 27.3%; viability, T/C (compound 1 µM): 7.51% and 8.21% and 8.1%; viability, T/C (compound 3.16 µM): 2.73% and 2.56% and 3.17%; viability, T/C (compound 10 µM): 7.73% and 8.61% and 11.3%; IC50 (curve of compound): 55.5 nM and 48.3 nM and 127 nM |
